Positions of bridges follow the written chain, without caps; N, C: chain ends. Non-standard residues stand in square brackets, D forms with d. Residues, ends and D or L forms follow the SMILES beside them. pS = N[C@@H](COP(=O)(O)O)C(=O)O

The text below walks through data of US20160213739A1, “TREATMENTS FOR DISORDERS USING GUANYLATE CYCLASE C AGONISTS” (Ironwood Pharmaceuticals, Inc., priority 2011, published 2016).

Series [1] can be described thus: In vitro metabolism in mouse jejunum loop fluid. It counts as in vitro ADME. Particulars: 37° C.; for metabolism in the control reaction: control reaction (1 M Tris-HCl), 120 minute incubation. The protocol:
The purpose of this study was to determine the stability of phosphorylated peptides in mouse jejunal loop fluid. […] The isotopically labeled peptide 2 was synthesized with ^13C, ^15N-labeled alanine and leucine (i.e., with a sequence CCpS[^13C6, ^15N]LCCNP[^13C6, ^15N]ACTGC).
Each peptide was synthesized by American Peptide Company, Inc., and was stored desiccated at −20° C. A 1 mg/mL solution for each of the non-labeled peptides was prepared in 1 M tris (hydroxymethyl) aminomethane hydrochloride (Tris-HCl), pH 8 just prior to conducting the mouse intestinal loop fluid assay. A 500 ng/mL solution of ^13C, ^15N-labeled peptide 2 was prepared in 0.1% formic acid in water and was utilized to dilute the jejunum samples for post-assay LC-MS/MS analysis.
To collect the fluid, mice were fasted overnight with full access to water. They were then anesthetized with isofluorane for surgery and subjected to laparotomy in which the small intestine was exteriorized. Jejunum loops of 3 to 4 cm in length were made with sutures starting at 7 cm from the pyloric sphincter of the stomach. Once the loops were formed, they were injected with 200 μL of phosphate buffered saline (PBS) buffer (10 mM, pH 7.4). The abdominal wall and skin of the animals were then sutured, and the animals were allowed to recover for 30 minutes. Following recovery, the animals were sacrificed, the loops were then excised and the fluid inside was recovered and stored at −80° C. until use.
For each peptide, 254 of the 1 mg/mL peptide stock solution was added to 25 of 1 M Tris-HCl and 25 μL of 10× calf intestinal phosphatase (CIP) buffer containing 500 mM Tris-HCl, 1 M sodium chloride (NaCl), […] (MgCl2), pH 8. The reactions were initiated by adding 175 pit of the mouse jejunum loop fluid or 175 μL of the 1 M Tris-HCl pH8 buffer for the control reactions. The final concentration of each peptide was 100 μg/mL. The reactions were continuously mixed and maintained at 37° C. on a plate shaker. At 0, 2, 5, 10, 20, 30, 60, 90 and 120 minutes after adding the mouse intestinal loop fluid, a 25 μL aliquot was taken and added to 25 μL of 4° C. 12% trichloroacetic acid to stop the reaction. An additional 200 μL of 0.1% formic acid in water was added to these reactions for dilution purposes. These samples were then further diluted by taking 20 μL of each sample and adding it to 480 μL of 0.1% formic acid in water containing 500 ng/mL of the internal standard ^13C, ^15N-labeled peptide 2.
All samples were analyzed using an Applied Biosystems/MDS SCIEX API 4000 triple quadrupole mass spectrometer equipped with a high-performance liquid chromatography (HPLC) system. The mass spectrometer was operated in multiple reaction monitoring (MRM) mode, with resolution set to 1.2 Da.
The LC-MS/MS data were processed using Analyst version 1.4.2 software (Applied Biosystems/MDS SCIEX). The peak area ratio (ratio of analyte peak area to internal standard peak area) was used to calculate the percent remaining of each peptide.

Series [2] has as its target T1, Calf intestinal alkaline phosphatase (CIP) (Bos taurus, UniProt P19111).
T1 construct: purchased New England BioLabs M0290S
Put plainly: Alkaline phosphatase reaction on peptide substrates. Conditions: for Dephospho (%) / Remaining (%): Alkaline phosphatase pH 8, 90 minutes at 37° C. The series is classed as in vitro ADME. The protocol: (§1) For the alkaline phosphatase reactions, peptide stocks were prepared at 1 mg/mL in 0.1 M Tris-HCl pH 8, which were stored at −20° C. until assays were conducted. For the acid phosphatase reactions, peptide stocks were prepared at 1 mg/mL in 50 mM sodium phosphate pH 6, which was stored at −20° C. until assays were conducted.
Calf intestinal alkaline phosphatase (CIP) was obtained from New England BioLabs, Ipswich, Mass. Cat # M0290S. The CIP reaction solution was prepared by dilution with buffer (50 mM KCl, 10 mM Tris-HCl pH 8, 1 mM MgCl2, 50% glycerol) to 0.5 units/4. The alkaline phosphatase reaction solutions were assembled in 20 μL quantities containing:
2 μL 10×CIP buffer (1M NaCl, 500 mM Tris-HCl pH 8, 100 mM MgCl2)
2 μL peptide stock (1 mg/mL)
4 μL alkaline phosphatase (0, 0.5 or 2 units)
The reaction solutions were mixed gently and incubated for 90 minutes at 37° C. These reaction solutions were stored at −20° C. until analysis. For analysis, the reaction solutions were diluted from 7.5 μL of CIP treated peptide to 50 μL with 0.1% formic acid in water to a final concentration of 10 μM.
Control reactions were assembled for enzyme activity containing 10 mM p-nitrophenylphosphate in place of peptide. After incubation, the reactions were diluted with 0.1 mL of 100 mM borate buffer pH 9 and read at the absorbance of 405 nm to monitor p-nitrophenol appearance.

The test system of series [3] is Potato acid phosphatase (PoAP). Put plainly: Acid phosphatase reaction, potato acid phosphatase. The series is classed as in vitro ADME. Particulars: Potato acid phosphatase pH 5, 90 minutes at 37° C. On the procedure: as §1
(§2) Potato acid phosphatase (PoAP) was obtained from Sigma, St. Louis, Miss. Cat #P1146 and human prostate acid phosphatase (HuPrAP) was obtained from MP Biochemicals, Solon, Ohio. Cat #153872. The acid phosphatases were dissolved to provide a solution containing 0.5 units AP/4 using 50 mM sodium acetate pH 5, 0.2 mM MgCl2. The acid phosphatase reactions were assembled in 20 μL quantities containing: • 2 μL 10× acid phosphatase buffer (500 mM sodium acetate pH 5, 2 mM MgCl2) • 2 μL peptide stock (1 mg/mL) • 12 μL H2O • 4 μL acid phosphatase (0.5 or 2 units)
(§3) The reaction solutions were mixed gently and incubated for 90 minutes at 37° C. The reaction solutions were stored at −20° C. for later analysis. For analysis, 7.5 μL acid phosphatase reactions were diluted to 50 μL with 0.1% formic acid in water to a final concentration of 10 μM. The control reactions for enzyme activity were assembled and diluted to 10 mM p-nitrophenylphosphate in place of peptide. After incubation, the reactions were diluted with 0.1 mL of 100 mM borate buffer pH 9 and read at the absorbance of 405 nm to monitor p-nitrophenol appearance.

Series [4] concerns the target T2, human prostate acid phosphatase (HuPrAP) (Homo sapiens, UniProt P15309).
T2 construct: purchased MP Biochemicals 153872
T2 sequence (P15309 33-386): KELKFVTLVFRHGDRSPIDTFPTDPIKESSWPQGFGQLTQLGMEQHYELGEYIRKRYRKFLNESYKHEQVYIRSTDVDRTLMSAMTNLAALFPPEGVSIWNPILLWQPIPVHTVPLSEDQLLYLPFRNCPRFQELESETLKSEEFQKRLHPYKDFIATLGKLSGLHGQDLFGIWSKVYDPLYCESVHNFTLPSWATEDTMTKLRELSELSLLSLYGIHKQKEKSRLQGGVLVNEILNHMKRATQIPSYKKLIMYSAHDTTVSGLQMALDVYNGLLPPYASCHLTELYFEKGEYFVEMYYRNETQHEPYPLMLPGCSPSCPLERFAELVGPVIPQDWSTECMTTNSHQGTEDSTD
Put plainly: Acid phosphatase reaction, human prostate acid phosphatase. It counts as in vitro ADME. Particulars: Human prostatic acid phosphatase pH 5, 90 minutes at 37° C. On the procedure: as §1, §2, §3

For series [5] the following is noted: after oral administration at therapeutic dose levels; cited from earlier work.

T1 sequence (P19111 20-506): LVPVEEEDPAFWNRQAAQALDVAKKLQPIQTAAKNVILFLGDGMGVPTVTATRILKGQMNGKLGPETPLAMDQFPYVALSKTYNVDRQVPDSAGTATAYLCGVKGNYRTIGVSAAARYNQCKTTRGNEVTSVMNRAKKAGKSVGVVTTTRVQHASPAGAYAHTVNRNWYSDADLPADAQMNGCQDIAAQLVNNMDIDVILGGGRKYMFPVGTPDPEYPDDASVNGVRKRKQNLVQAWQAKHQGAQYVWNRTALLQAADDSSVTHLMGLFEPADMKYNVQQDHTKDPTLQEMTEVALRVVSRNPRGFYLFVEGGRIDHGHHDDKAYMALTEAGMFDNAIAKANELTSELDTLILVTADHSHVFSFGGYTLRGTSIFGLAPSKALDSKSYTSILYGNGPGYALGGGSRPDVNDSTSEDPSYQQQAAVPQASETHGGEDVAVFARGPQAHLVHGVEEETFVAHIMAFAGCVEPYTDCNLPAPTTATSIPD

For the compound `CC(C)C[C@@H]1NC(=O)[C@H](CO)NC(=O)[C@@H]2CSSC[C@@H]3NC(=O)[C@H](C)NC(=O)[C@@H]4CCCN4C(=O)[C@H](CC(N)=O)NC(=O)[C@H](CSSC[C@H](N)C(=O)N2)NC(=O)[C@H](CSSC[C@@H](C(=O)O)NC(=O)CNC(=O)[C@H]([C@@H](C)O)NC3=O)NC1=O` [Dephospho-Peptide 2, CCSLCCNPACTGC] (H-CCSLCCNPACTGC-OH; disulfide 1-6, 2-10, 5-13 (inferred); N-terminus and C-terminus assumed), in series [1], the “metabolism in the control reaction” value is “not metabolized” and the “degradation in mouse intestinal fluid compared with peptide 2” value is “degraded faster”.

On to `CC(C)C[C@@H]1NC(=O)[C@H](COP(=O)(O)O)NC(=O)[C@@H]2CSSC[C@@H]3NC(=O)[C@H](C)NC(=O)[C@@H]4CCCN4C(=O)[C@H](CC(N)=O)NC(=O)[C@H](CSSC[C@H](N)C(=O)N2)NC(=O)[C@H](CSSC[C@@H](C(=O)N[C@@H](Cc2ccc(O)cc2)C(=O)O)NC(=O)CNC(=O)[C@H]([C@@H](C)O)NC3=O)NC1=O` [Peptide 1, CCpSLCCNPACTGCY] (H-CC[pS]LCCNPACTGCY-OH; disulfide 1-6, 2-10, 5-13 (inferred); N-terminus and C-terminus assumed), for which the results for the “Dephospho (%)” value in series [2], in series [3] and in series [4] were 100%, 22.1% and 6.2%, respectively. For the same compound, the “Remaining (%)” value in series [2] was 0%.

`CC(C)C[C@@H]1NC(=O)[C@H](COP(=O)(O)O)NC(=O)[C@@H]2CSSC[C@@H]3NC(=O)[C@H](C)NC(=O)[C@@H]4CCCN4C(=O)[C@H](CC(N)=O)NC(=O)[C@H](CSSC[C@H](N)C(=O)N2)NC(=O)[C@H](CSSC[C@@H](C(=O)O)NC(=O)CNC(=O)[C@H]([C@@H](C)O)NC3=O)NC1=O` [Peptide 2, CCpSLCCNPACTGC] (H-CC[pS]LCCNPACTGC-OH; disulfide 1-6, 2-10, 5-13 (inferred); N-terminus and C-terminus assumed): the “Dephospho (%)” value was 100% in series [2] and 4.1% in series [4]. In series [1], the “metabolism in the control reaction” value is recorded as “not metabolized”. The metabolite formed entry in series [1] (mouse jejunum fluid, increased for the first 20 minutes then slow decrease) is “dephospho-peptide 2”.

On to `CC(C)C[C@@H]1NC(=O)[C@H](CCC(=O)O)NC(=O)[C@@H]2CSSC[C@@H]3NC(=O)[C@H](C)NC(=O)[C@@H]4CCCN4C(=O)[C@H](CC(N)=O)NC(=O)[C@H](CSSC[C@H](N)C(=O)N2)NC(=O)[C@H](CSSC[C@@H](C(=O)N[C@@H](Cc2ccc(O)cc2)C(=O)O)NC(=O)CNC(=O)[C@H]([C@@H](C)O)NC3=O)NC1=O` [Peptide 3, CCELCCNPACTGCY] (H-CCELCCNPACTGCY-OH; disulfide 1-6, 2-10, 5-13 (inferred); N-terminus and C-terminus assumed), for which, in series [2] (with and without calf intestinal alkaline phosphatase, data not shown), the “Effect of CIP treatment on the peptide (LC-MS)” value was “not affected”. In series [1], the “metabolism in the control reaction” value is given as “not metabolized” and the “degradation in mouse intestinal fluid compared with peptide 2” value is on record as “degraded faster”. Besides, in series [1] (mouse jejunum fluid, 100 μg/mL peptide), the “peptide detected after 90 minutes” value is given as “not detected”.

On to `C[C@@H]1NC(=O)[C@@H]2CCCN2C(=O)[C@H](CC(N)=O)NC(=O)[C@@H]2CSSC[C@H](N)C(=O)N[C@H]3CSSC[C@H](NC1=O)C(=O)N[C@@H]([C@@H](C)O)C(=O)NCC(=O)N[C@H](C(=O)N[C@@H](Cc1ccc(O)cc1)C(=O)O)CSSC[C@H](NC(=O)[C@H](Cc1ccc(O)cc1)NC(=O)[C@H](CCC(=O)O)NC3=O)C(=O)N2` [linaclotide, Linaclotide] (H-CCEYCCNPACTGCY-OH; disulfide 1-6, 2-10, 5-13), for which the levels seen systemically in series [5] is listed as “no detectable levels”.

`O=[N+]([O-])c1ccc(OP(=O)(O)O)cc1` [p-nitrophenylphosphate]: the “Dephospho (%)” value in series [2], in series [3] and in series [4] was 100% each time. Moreover, the “Remaining (%)” value in series [2], in series [3] and in series [4] was 0% in each case.
